Results reported in US7601746B2 (Shionogi & Co., Ltd., priority 2003, dated 2009).

biological target: T1, human TPO receptor (hTPOR) (Homo sapiens, UniProt P40238); test: Thrombopoietic activity: proliferation of TPO dependent BaF/hTPOR cells (WST-1, absorbance at 450 nm); assay type: cell-based; conditions: 20 h + 4 h WST-1, ED50 = half concentration of the concentration showing the maximum thrombopoietic activity, Table 1
T1 construct: expressed in transfected cells; host or cells: BaF-B03 (murine IL-3 dependent cell line)
T1 sequence (P40238 26-635): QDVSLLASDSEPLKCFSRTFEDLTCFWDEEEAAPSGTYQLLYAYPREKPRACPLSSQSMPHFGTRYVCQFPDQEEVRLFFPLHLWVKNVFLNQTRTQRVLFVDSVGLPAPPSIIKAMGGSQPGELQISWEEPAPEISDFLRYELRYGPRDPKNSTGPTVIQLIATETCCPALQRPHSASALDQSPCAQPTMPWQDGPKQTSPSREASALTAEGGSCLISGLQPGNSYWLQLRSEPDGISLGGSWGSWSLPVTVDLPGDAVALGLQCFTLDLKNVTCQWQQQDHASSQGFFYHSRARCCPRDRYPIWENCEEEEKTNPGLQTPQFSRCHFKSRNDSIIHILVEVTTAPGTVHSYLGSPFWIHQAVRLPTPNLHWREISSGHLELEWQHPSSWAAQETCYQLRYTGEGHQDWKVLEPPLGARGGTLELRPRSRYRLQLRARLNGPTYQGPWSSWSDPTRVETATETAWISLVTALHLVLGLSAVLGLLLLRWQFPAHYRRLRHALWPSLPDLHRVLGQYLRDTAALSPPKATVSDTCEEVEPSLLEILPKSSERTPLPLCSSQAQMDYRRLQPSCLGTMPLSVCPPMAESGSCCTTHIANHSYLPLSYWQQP
Excerpt: The TPO dependent BaF/hTPOR cell line which was established by introducing human TPO receptor (hTPOR) into BaF-B03 cells according to Collins et al (J. Cell. Physiol., 137:293-298 (1988)) was used to test the thrombopoietic activity of the present compound. The DNA sequences and encoded peptide sequences for human hTPOR have been described by Vigon et al (Proc. Natl. Acad. Sci. USA, 89:5640-5644 (1992)). TPO dose not have any ability to support proliferation of interlukin-3 dependent parental cell line BaF-B03. BAF/hTPOR cells were maintained in RPMI medium and WEHI-3B conditioned medium as a source of murine interleukin-3 (IL-3). These cells were washed and resuspended in RPMI medium without a source of murine IL-3 and seeded into each well of 96-well microtiter plates at a density of 5×10^4 cells per well in the absence or presence of various concentration of hTPO or the present compound. After incubation at 37° C. for 20 hours in the 5% CO2 incubator, 10% WST-1 reagent (Takara Biomedicals, Japan) was added to each wells and the cells were further incubated for 4 hours. The absorbance at 450 nm was measured. Tables 1 and 2 exemplify the ED50 for tested compounds of the present invention, wherein the ED50 is the half concentration of the concentration showing the maximum thrombopoietic activity.

Molecule	EC50
CCCCCCOCCC(OC)c1cccc(-c2csc(NC(=O)c3cc(Cl)c(C=C(C)C(=O)O)c(Cl)c3)n2)c1F (stereo not drawn) [Compound B101, 3-(2,6-dichloro-4-{4-[2-fluoro-3-(3-n-hexyloxy-1-methyloxypropyl)phenyl]thiazol-2-ylcarbamoyl)phenyl]-2-methylacrylic acid]	1.9 nM
CCCCCCCCCCCC(OC)c1cccc(-c2csc(NC(=O)c3cc(F)c(C=C(C)C(=O)O)c(F)c3)n2)c1F (stereo not drawn) [Compound B48, 3-(2,6-difluoro-4-{4-[2-fluoro-3-(1-methyloxydodecyl)phenyl]thiazol-2-ylcarbamoyl}phenyl)-2-methylacrylic acid]	2.23 nM
COc1c(CCCOCC(C)(C)C)cccc1-c1csc(NC(=O)c2cc(F)c(/C=C(\C)C(=O)O)c(F)c2)n1 [Compound B488]	15.9 nM
CCCOCCCc1cccc2c1CCc1sc(NC(=O)c3cc(F)c(C=C(C)C(=O)O)c(F)c3)nc1-2 [Compound A9, 3-{2,6-difluoro-4-[4,5-dihydro-6-(3-n-propyloxypropyl)naphto[1,2-d]thiazol-2-ylcabamoyl]phenyl}-2-methylacrylic acid]	3 nM
CCCCCC(OC)c1cccc(-c2csc(NC(=O)c3cc(F)c(C=C(C)C(=O)O)c(F)c3)n2)c1F (stereo not drawn) [Compound B1, 3-(2,6-difluoro-4-{4-[2-fluoro-3-(1-methyloxyhexyl)phenyl]thiazol-2-ylcarbamoyl}phenyl)-2-methylacrylic acid]	2.2 nM
CCCCCCCOCc1cccc(-c2csc(NC(=O)c3cc(Cl)c(/C=C(\C)C(=O)O)c(Cl)c3)n2)c1OC [Compound B1991, (E)-3-{2,6-dichloro-4-[4-(3-heptyloxymethyl-2-methyloxyphenyl)thiazol-2-ylcarbamoyl]phenyl}-2-methylacrylic acid]	13.2 nM
CCCCOCCCC(OCCCC)c1cccc(-c2csc(NC(=O)c3cc(Cl)c(C=C(C)C(=O)O)c(Cl)c3)n2)c1F (stereo not drawn) [Compound B100, 3-(4-{4-[3-(1,4-dibutyloxybutyl)-2-fluorophenyl]thiazol-2-ylcarbamoyl)-2,6-dichlorophenyl]-2-methylacrylic acid]	0.68 nM
C/C(=C\c1c(Cl)cc(C(=O)Nc2nc3c(s2)COc2c-3cccc2C(C)C)cc1Cl)C(=O)O [Compound A1312, (E)-3-[2,6-dichloro-4-(6-isopropyl-4H-chromeno[4,3-d]thiazol-2-ylcabamoyl)phenyl]-2-methylacrylic acid]	10.8 nM
COc1c(COCC(C)(C)C)cccc1-c1csc(NC(=O)c2cc(F)c(/C=C(\C)C(=O)O)c(F)c2)n1 [Compound B1933, (E)-3-(4-{4-[3-(2,2-dimethylpropyloxymethyl)-2-methyloxyphenyl]thiazol-2-ylcarbamoyl}-2,6-difluorophenyl)-2-methylacrylic acid]	7.88 nM
3-[2,6-difluoro-4-(4-{2-fluoro-3-{1-(3-methylbutyloxypropyl)phenyl]thiazol-2-ylcarbamoyl}phenyl)-2-methylacrylic acid [Compound B18]	0.57 nM
CCCCCCCOc1cccc(-c2csc(NC(=O)c3cc(F)c(/C=C(\C)C(=O)O)c(F)c3)n2)c1OC [Compound B1998, (E)-3-{2,6-difluoro-4-[4-(3-heptyloxy-2-methyloxyphenyl)thiazol-2-ylcarbamoyl]phenyl}-2-methylacrylic acid]	8.35 nM
CCCCCC(CCc1cccc(-c2csc(NC(=O)c3cc(Cl)c(C=C(C)C(=O)O)c(Cl)c3)n2)c1F)OC (stereo not drawn) [Compound B73, 3-(2,6-dichloro-4-{4-[2-fluoro-3-(3-methyloxyoctyl)phenyl]thiazol-2-ylcarbamoyl}phenyl)-2-methylacrylic acid]	1.35 nM
CCCCCCCCCC(OC)c1cccc(-c2csc(NC(=O)c3cc(Cl)c(/C=C(\OC)C(=O)O)c(Cl)c3)n2)c1OC (stereo not drawn) [Compound B1437, (Z)-3-(2,6-dichloro-4-{4-[2-methyloxy-3-(1-methyloxydecyl)phenyl]thiazol-2-ylcarbamoyl}phenyl)-2-methyloxyacrylic acid]	6.5 nM
CCCCCCOCCc1cccc(-c2csc(NC(=O)c3cc(Cl)c(/C=C(\C)C(=O)O)c(Cl)c3)n2)c1OC [Compound B1928, (E)-3-(2,6-dichloro-4-{4-[3-(2-hexyloxyethyl)-2-methyloxyphenyl]thiazol-2-ylcarbamoyl)phenyl)-2-methylacrylic acid]	12.6 nM
3-{2,6-difluoro-4,5-dihydro-4-[6-(3-ethyloxypropyl)naphtho[1,2-d]thiazol-2-ylcabamoyl]phenyl}-2-methylacrylic acid [Compound A8]	2.9 nM
CCC(CC)OCc1cccc(-c2csc(NC(=O)c3cc(F)c(/C=C(\C)C(=O)O)c(F)c3)n2)c1OC [Compound B1890, (E)-3-(4-{4-[3-(1-ethylpropyloxymethyl)-2-methyloxyphenyl]thiazol-2-ylcarbamoyl}-2,6-difluorophenyl)-2-methylacrylic acid]	18.1 nM
CCCCOCCCc1cccc2c1CCc1sc(NC(=O)c3cc(Cl)c(C=C(C)C(=O)O)c(Cl)c3)nc1-2 [Compound A11, 3-{4-[6-(3-n-butyloxypropyl)-4,5-dihydronaphtho[1,2-d]thiazol-2-ylcabamoyl]-2,6-dichlorophenyl}-2-methylacrylic acid]	0.87 nM
COc1c(CCCOCC(C)C)cccc1-c1csc(NC(=O)c2cc(F)c(/C=C(\C)C(=O)O)c(F)c2)n1 [Compound B1877, (E)-3-(2,6-difluoro-4-{4-[3-(3-isobuyloxypropyl)-2-methyloxyphenyl]thiazol-2-ylcarbamoyl}phenyl)-2-methylacrylic acid]	13 nM
CCCOC(CCC)c1cccc(-c2csc(NC(=O)c3cc(F)c(C=C(C)C(=O)O)c(F)c3)n2)c1F (stereo not drawn) [Compound B34, 3-(2,6-difluoro-4-{4-[2-fluoro-3-(1-n-propyloxybutyl)phenyl]thiazol-2-ylcarbamoyl}phenyl)-2-methylacrylic acid]	0.99 nM
COc1c(CCOCCC(C)C)cccc1-c1csc(NC(=O)c2cc(Cl)c(/C=C(\C)C(=O)O)c(Cl)c2)n1 [Compound B1955]	11.7 nM
CCCCOCc1cccc(-c2csc(NC(=O)c3cc(Cl)c(/C=C(\C)C(=O)O)c(Cl)c3)n2)c1OC [Compound B1995, (E)-3-{4-[4-(3-butyloxymethyl-2-methyloxyphenyl)thiazol-2-ylcarbamoyl]-2,6-dichlorophenyl}-2-methylacrylic acid]	10.9 nM
CCCOCCCc1cccc(-c2csc(NC(=O)c3cc(Cl)c(C=C(C)C(=O)O)c(Cl)c3)n2)c1F [Compound B95, 3-(2,6-dichloro-4-{4-[2-fluoro-3-(3-n-propyloxypropyl)phenyl]thiazol-2-ylcarbamoyl)phenyl]-2-methylacrylic acid]	0.82 nM
CCCCOC(CCCC)c1cccc(-c2csc(NC(=O)c3cc(F)c(C=C(C)C(=O)O)c(F)c3)n2)c1F (stereo not drawn) [Compound B42, 3-(4-{4-[3-(1-n-butyloxypentyl)-2-fluorophenyl]thiazol-2-ylcarbamoyl}-2,6-difluorophenyl]-2-methylacrylic acid]	0.34 nM
CCCCCCOCc1cccc(-c2csc(NC(=O)c3cc(Cl)c(/C=C(\OC)C(=O)O)c(Cl)c3)n2)c1OC [Compound B1994, (Z)-3-{2,6-dichloro-4-[4-(3-hexyloxymethyl-2-methyloxyphenyl)thiazol-2-ylcarbamoyl]phenyl}-2-methyloxyacrylic acid]	14.2 nM
CCCCOC(c1cccc(-c2csc(NC(=O)c3cc(F)c(/C=C(\C)C(=O)O)c(F)c3)n2)c1OC)C(C)(C)C (stereo not drawn) [Compound B425, (E)-3-(4-{4-[3-(1-butyloxy-2,2-dimethylpropyl)-2-methyloxyphenyl]thiazol-2-ylcarbamoyl}-2,6-difluorophenyl)-2-methylacrylic acid]	2.01 nM
CCCCOC(C)c1cccc(-c2csc(NC(=O)c3cc(Cl)c(/C=C(\C)C(=O)O)c(Cl)c3)n2)c1OC (stereo not drawn) [Compound B1122, (E)-3-(4-{4-[3-(1-butyloxyethyl)-2-methyloxyphenyl]thiazol-2-ylcarbamoyl}-2,6-dichlorophenyl)-2-methylacrylic acid]	8.25 nM

same assay, conditions: 20 h + 4 h WST-1, ED50 = half concentration of the concentration showing the maximum thrombopoietic activity, Table 2

Molecule	EC50
CCCCCOCc1cccc(-c2csc(NC(=O)c3cc(Cl)c(/C=C(\C)C(=O)O)c(Cl)c3)n2)c1OC [Compound B1886]	22.1 nM
